Reference: ChEMBL document CHEMBL1201862, “PubChem BioAssay data set” (2004)
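Grown in 96-well plates, cells were treated for 48 hours with each compound at five concentrations. Insufficient inhibition: endpoint recorded as highest concentration tested. Here, GI50 denotes the concentration required for 50% inhibition of growth.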 Activity calls are given as the source filed them. Cut-off read from the data, not from the text of the source: active = GI50 up to about 1.1 µM and inactive = higher.

Key:
Assay in all cases: NCI-60 cell line screen, 48 h
[1] = system: 786-0
[2] = system: BT-549
[3] = system: CAKI-1
[4] = system: HCT-15
[5] = system: HL-60
[6] = system: Hs-578T
[7] = system: K562
[8] = system: MDA-N
[9] = system: Malme-3M
[10] = system: NCI-H23
[11] = system: OVCAR-3
[12] = system: OVCAR-4
[13] = system: OVCAR-8
[14] = system: RXF 393
[15] = system: SF-539
[16] = system: SK-OV-3
[17] = system: SNB-19
[18] = system: TK-10
[19] = system: U-251
[20] = system: SK-MEL-28

| SMILES | GI50 [1] | GI50 [2] | GI50 [3] | GI50 [4] [µM] | GI50 [5] | GI50 [6] | GI50 [7] | GI50 [8] | GI50 [9] | GI50 [10] | GI50 [11] | GI50 [12] | GI50 [13] | GI50 [14] | GI50 [15] | GI50 [16] | GI50 [17] | GI50 [18] | GI50 [19] | GI50 [20] |
| --- | --- | --- | --- | --- | --- | --- | --- | --- | --- | --- | --- | --- | --- | --- | --- | --- | --- | --- | --- | --- |
| N#Cc1cc(-c2nc3c(F)cccc3s2)ccc1N | > 100 µM (inactive) | > 100 µM (inactive) | 46 µM (inactive) | > 100 | > 100 µM (inactive) | > 100 µM (inactive) | > 100 µM (inactive) | 47.8 µM (inactive) | 88.9 µM (inactive) | > 100 µM (inactive) | 96.4 µM (inactive) | > 100 µM (inactive) | > 100 µM (inactive) | > 100 µM (inactive) | > 100 µM (inactive) | > 100 µM (inactive) | > 100 µM (inactive) | 4.26 µM (inactive) | > 100 µM (inactive) |  |
| Nc1ccc(Oc2ccc(C34CC5CC(C3)CC(c3ccc(Oc6ccc(N)cc6C(F)(F)F)cc3)(C5)C4)cc2)c(C(F)(F)F)c1 | 31.6 µM (inactive) | 21.9 µM (inactive) | 28.1 µM (inactive) | 31.8 | 24.2 µM (inactive) | 17.1 µM (inactive) | 44 µM (inactive) | 36.6 µM (inactive) | 22.2 µM (inactive) | 17.7 µM (inactive) | 17.9 µM (inactive) | 36.6 µM (inactive) | 16 µM (inactive) | 11.1 µM (inactive) |  | 15.6 µM (inactive) | 22.5 µM (inactive) | 16.1 µM (inactive) | 14.5 µM (inactive) | 43.3 µM (inactive) |
| CN(C)c1ccc(/C=C2\N=C(N/N=C/c3ccccc3)NC2=O)cc1 | 44.2 µM (inactive) | > 100 µM (inactive) | > 100 µM (inactive) | 33.4 | > 100 µM (inactive) | 43 µM (inactive) |  | 33.4 µM (inactive) | 69.5 µM (inactive) | 50.6 µM (inactive) | > 100 µM (inactive) | 60.1 µM (inactive) | 26.3 µM (inactive) | 20.2 µM (inactive) |  | > 100 µM (inactive) | > 100 µM (inactive) | > 100 µM (inactive) | 60.5 µM (inactive) | > 100 µM (inactive) |
| CC(=O)Nc1ncc2c(n1)-c1ccccc1OC2 | 65.9 µM (inactive) | > 100 µM (inactive) | > 100 µM (inactive) | > 100 | > 100 µM (inactive) | 19.5 µM (inactive) |  | > 100 µM (inactive) |  | > 100 µM (inactive) | > 100 µM (inactive) | > 100 µM (inactive) | > 100 µM (inactive) | > 100 µM (inactive) | > 100 µM (inactive) | > 100 µM (inactive) | > 100 µM (inactive) | > 100 µM (inactive) | > 100 µM (inactive) |  |
| OC1(C2(c3ccc(Cl)cc3)CCCC2)c2ccccc2C2=NCCN21 (stereo not drawn) | 14.3 µM (inactive) | 16.8 µM (inactive) | 14.8 µM (inactive) | 15.6 | 14.4 µM (inactive) | 36.3 µM (inactive) | 4.81 µM (inactive) | 16.1 µM (inactive) | 17.7 µM (inactive) | 18.7 µM (inactive) | 16.4 µM (inactive) | 12.9 µM (inactive) | 17.3 µM (inactive) | 1.68 µM (inactive) |  | 18.8 µM (inactive) | 16.4 µM (inactive) | 15.1 µM (inactive) | 14.2 µM (inactive) | 15.3 µM (inactive) |
| NCCSC(c1ccccc1)c1ccccc1 | 17.5 µM (inactive) | 43.8 µM (inactive) | 24.9 µM (inactive) | 33.2 | 0.314 µM (active) | 24.2 µM (inactive) |  | 18.7 µM (inactive) | 19.5 µM (inactive) | 37.2 µM (inactive) | 19.1 µM (inactive) | 20.4 µM (inactive) | 20.6 µM (inactive) | 17.7 µM (inactive) | 20.7 µM (inactive) | 22.5 µM (inactive) | 51.9 µM (inactive) | 16.9 µM (inactive) | 18.2 µM (inactive) | 18.6 µM (inactive) |
| CCOC(CN(C)C(=O)OCC(Cl)(Cl)Cl)OCC | > 100 µM (inactive) | 82.8 µM (inactive) | 34.1 µM (inactive) | 77.8 | 21.6 µM (inactive) | 29.7 µM (inactive) | 39.9 µM (inactive) | 81.3 µM (inactive) |  | 59.7 µM (inactive) | > 100 µM (inactive) | 77.1 µM (inactive) | > 100 µM (inactive) | 30.7 µM (inactive) | > 100 µM (inactive) | > 100 µM (inactive) | > 100 µM (inactive) | > 100 µM (inactive) | 74.8 µM (inactive) | > 100 µM (inactive) |
| CC(C)(C)c1cc(-c2cc(C(C)(C)C)[nH]n2)[nH]n1 | > 100 µM (inactive) | > 100 µM (inactive) | > 100 µM (inactive) | > 100 | 46.8 µM (inactive) | > 100 µM (inactive) | 47.5 µM (inactive) | > 100 µM (inactive) | > 100 µM (inactive) | > 100 µM (inactive) | > 100 µM (inactive) | > 100 µM (inactive) |  | > 100 µM (inactive) | > 100 µM (inactive) | > 100 µM (inactive) | > 100 µM (inactive) | > 100 µM (inactive) | > 100 µM (inactive) | > 100 µM (inactive) |
| Nc1cc([N+](=O)[O-])ccc1C(=O)N1CCC[C@H]1CO | > 100 µM (inactive) | > 100 µM (inactive) | > 100 µM (inactive) | > 100 | > 100 µM (inactive) | 64.1 µM (inactive) | > 100 µM (inactive) | > 100 µM (inactive) | > 100 µM (inactive) | > 100 µM (inactive) |  | > 100 µM (inactive) | > 100 µM (inactive) | > 100 µM (inactive) | > 100 µM (inactive) | > 100 µM (inactive) | > 100 µM (inactive) | > 100 µM (inactive) | > 100 µM (inactive) | > 100 µM (inactive) |
| ClC(Cl)(Cl)C1CCOC1n1nnc2ccccc21 (stereo not drawn) | > 100 µM (inactive) | 25.9 µM (inactive) | > 100 µM (inactive) |  | 11.9 µM (inactive) | 89.7 µM (inactive) | 24.1 µM (inactive) | > 100 µM (inactive) | > 100 µM (inactive) | 24.3 µM (inactive) | > 100 µM (inactive) |  | > 100 µM (inactive) | > 100 µM (inactive) | > 100 µM (inactive) | > 100 µM (inactive) |  | > 100 µM (inactive) | 90.4 µM (inactive) |  |
| CCN(CC)CCC(=O)c1ccc(C)cc1 | 17.7 µM (inactive) | 22.4 µM (inactive) |  | 18.7 | 24.5 µM (inactive) | 61.5 µM (inactive) | 14.9 µM (inactive) | 20.7 µM (inactive) | 23 µM (inactive) | 21.3 µM (inactive) | 17.7 µM (inactive) | 23.5 µM (inactive) | 33.4 µM (inactive) | 17 µM (inactive) | 88.3 µM (inactive) | > 100 µM (inactive) | > 100 µM (inactive) | > 10 µM (inactive) | > 100 µM (inactive) | 16.3 µM (inactive) |
